Test results: ChEMBL document CHEMBL3785080, “Individual and combined antiparasitic effect of six plant metabolites against Leishmania amazonensis and Trypanosoma cruzi” (Bioorg Med Chem Lett, 2016)

Assays:
[1] = Cytotoxicity against human THP1 cells assessed as cell viability after 72 hrs by MTT assay; type: functional; settings: THP-1, 72 h
[2] = Selectivity index, ratio of CC50 for human THP1 cells to IC50 for Leishmania amazonensis; type: functional, THP-1
[3] = tested on: Leishmania amazonensis; assay: Antileishmanial activity against intracellular amastigote stage of Leishmania amazonensis infected in human THP1 cells […] by microplate based assay; type: functional, organism-based
[4] = tested on: Trypanosoma cruzi; assay: Antiprotozoan activity against intracellular amastigote stage of Trypanosoma cruzi Tulahuen infected in human THP1 cells assessed as reduction in parasite viability after 48 hrs by microplate based assay; type: functional, organism-based; settings: THP-1, 48 h
[5] = Selectivity index, ratio of CC50 for human THP1 cells to IC50 for Trypanosoma cruzi Tulahuen; type: functional, THP-1

Row | IC50 [3] | IC50 [4] | Structure (SMILES) | CC50 [1] | Ratio CC50/IC50 [2] | Ratio CC50/IC50 [5]
1 | 21.8 µM | 44.5 µM | CC1(C)C=Cc2c(ccc(C(=O)/C=C/c3ccccc3)c2O)O1 [LONCHOCARPIN] | 66 µM | 3.03 | 1.48
2 | – | 10.2 µM | O=C(Cn1ccnc1[N+](=O)[O-])NCc1ccccc1 [BENZNIDAZOLE] | > 125 µM | – | >12
3 | 0.07 µM | – | C[C@@H]1[C@H](O)[C@@H](C)/C=C/C=C/C=C/C=C/C=C/C=C/C=C/[C@H](O[C@@H]2O[C@H](C)[C@@H](O)[C@H](N)[C@@H]2O)C[C@@H]2O[C@](O)(C[C@@H](O)C[C@@H](O)[C@H](O)CC[C@@H](O)C[C@@H](O)CC(=O)O[C@H]1C)C[C@H](O)[C@H]2C(=O)O [AMPHOTERICIN B] | 10 µM | 142 | –
4 | – | 39.5 µM | COc1c(C=O)c(O)cc2c1C(=O)c1ccccc1C2=O [DAMNACANTHAL] | 31.5 µM | – | 0.79

Second part, the molecule before the results:

Row | Structure (SMILES) | IC50 [3] | IC50 [4] | CC50 [1] | Ratio CC50/IC50 [2] | Ratio CC50/IC50 [5]
5 | CC(C)=CCc1c(O)c(CC=C(C)C)c2c(c1O)C(=O)C[C@@H](c1ccc(O)c(O)c1)O2 | 29.2 µM | – | 46.3 µM | 1.58 | –
6 | CC1(C)C=Cc2c(ccc(C(=O)/C=C/c3ccc(O)cc3)c2O)O1 | 23 µM | – | 76.2 µM | 3.31 | –
7 | COc1c(O)ccc2c1C(O)N(C)c1c-2ccc2cc3c(cc12)OCO3 (centres undefined) | 16.2 µM | – | > 125 µM | >7.69 | –
8 | CC(C)=CCc1c(O)ccc(C(=O)/C=C/c2ccc(O)cc2)c1O [ISOBAVACHALCONE] | – | – | 36 µM | – | –
